Measurements as given in US20120108592A1, “PHARMACEUTICAL COMPOSITIONS AND METHODS OF USE OF SALICYLANILIDES FOR TREATMENT OF HEPATITIS VIRUSES” (priority 2010, published 2012).
“And” between values parts separate entries of the source, which are not always exact repeats. Equal values may be shown once. “Also recorded” adds a separate entry of the source. Read-outs that look alike come from different tables or passages of the source.

Tests used:
[1] = test system: Huh 7.5 cells; assay: Cytotoxicity in Huh 7.5 cells (Calcein / ViaCount assay); assay type: cell-based
Experimental: (§1) Genotype 2a antiviral assays were conducted as previously described [Broering R. et al., Gut, 59, 1111-1119 (2010)]. […] Cell viability was determined using the Calcein assay kit (Biotium, Inc. Hayward, Calif., USA). The alternate method for measuring cell cytotoxicity was via the Guava Technologies ViaCount assay (Millipore) The ViaCount Assay provides rapid and reliable determinations of viability and total cell count. It distinguishes viable and non-viable cells based on differential permeabilities of two DNA-binding dyes in the Guava ViaCount® Reagent. The nuclear dye stains only nucleated cells, while the viability dye brightly stains dying cells. This combination of dyes enables the Guava ViaCount Assay to distinguish viable, apoptotic, and dead cells. Debris is excluded from results based on negative staining with the nuclear dye.

[2] = Secondary HCV replicon cell assay genotype 1b, cytotoxicity (neutral red dye uptake); assay type: cell-based; conditions: human
Experimental: (§4) Antiviral activity of test compounds was assessed in a 3-day assay using the stably-expressing HCV replicon cell line, AVA5 (sub-genomic CONI, genotype 1b) [Korba, B. E. et al. Antiviral Res. 77, 56-63 (2008); Blight et al., Science 290, 1972-1974 (2000)] maintained as sub-confluent cultures on 96-well plates as previously described [Okuse et al., Antiviral Research 65, 23-34 (2005)]. Antiviral activity was determined by blot hybridization analysis of intracellular HCV RNA (normalized to the level of cellular B-actin RNA in each culture sample) and cytotoxicity was assessed by neutral red dye uptake after 3 days of treatment. Additional studies were performed using Huh7 cells containing another HCV replicon, H/FL-Neo, a genotype la full length construct [Blight et al., J. Virol. […] For studies involving human serum, standard culture medium (which contains 10% fetal bovine serum) and assay conditions were maintained.

[3] = test system: HCV replicon cell line, AVA5 (sub-genomic CONI, genotype 1b); assay: Secondary HCV replicon cell assay genotype 1b, antiviral activity; assay type: cell-based; conditions: Hepatitis C virus; for EC50: 2-fold depression of intracellular HCV RNA; for EC90: 10-fold depression of intracellular HCV RNA
Experimental: (§2) Antiviral activity of test compounds was assessed in a 3-day assay using the stably-expressing HCV replicon cell line, AVA5 (sub-genomic CONI, genotype 1b) [Korba, B. E. et al. Antiviral Res. 77, 56-63 (2008); Blight et al., Science 290, 1972-1974 (2000)] maintained as sub-confluent cultures on 96-well plates as previously described [Okuse et al., Antiviral Research 65, 23-34 (2005)]. Antiviral activity was determined by blot hybridization analysis of intracellular HCV RNA (normalized to the level of cellular B-actin RNA in each culture sample) and cytotoxicity was assessed by neutral red dye uptake after 3 days of treatment. Additional studies were performed using Huh7 cells containing another HCV replicon, H/FL-Neo, a genotype la full length construct [Blight et al., J. Virol. 77, 3181-3190 (2003)]. For studies involving human serum, standard culture medium (which contains 10% fetal bovine serum) and assay conditions were maintained.
(§3) EC50, EC90 and CC50 values (±standard deviations [S.D.]) were calculated by linear regression analysis using data combined from all treated cultures (Korba, B. E. et al. Antiviral Res. 77, 56-63 (2008)). […] Selectivity index (S.I.) was calculated as CC50/EC90 for HBV assays and CC50/EC50 for HCV assays.

[4] = test system: J6/JFH-1 HCV (genotype 2a) in Huh 7.5 cells; assay: Infectious genotype 2a HCV cell culture assay (RT-PCR viral load); assay type: cell-based, hepatitis C virus (HCV); conditions: genotype G2a; for inhibition of J6/JFH-1 HCV replication: 1 μM test concentration; for relative activity / potency versus NTZ: at 1 μM, % of NTZ
Experimental: as §1
HCV replication levels were determined by RT-PCR on RNA from cell culture supernatants. J6-infected Huh 7.5 cells were seeded in 12-well plates at a density of 2.0E5 cells/well in 1.5 mL of DMEM supplemented with 10% FBS and 1% Pen/Strep. […] A positive control of IFN-α at concentrations of 10 IU/mL and 50 IU/mL, negative control wells containing mock incubations of DMEM with 1 uL and 10 uL (the same volume of the molecular compounds at 1 uM and 10 uM, respectively) of DMSO was included to rule out nonspecific effects of DMSO on the cells, and J6-infected with only DMEM were used as negative controls. A final control group consisted of un-infected Huh 7.5 cells, plated at the same time and density as the J6-infected cells on a separate plate. 48 hours and 120 hours after incubation with thiazolides, the media was collected and frozen, cells were washed 2× with PBS, and lysed in 500 uL of lysis buffer per well. Following lysis, RNA was extracted from the cells using the RNAqueous-4PCR Kit from Ambion, and the RNA concentration determined using the Nanoprop® machine. Reverse-transcription reactions produced 1.5 μg of cDNA per sample, which was then used for rt-PCR to quantify the HCV viral load in each sample. Analysis of the rt-PCR results generated the fold increases and decreases of the HCV viral load in comparison to untreated J6 cells.

[5] = test system: HCV replicon H/FL-Neo, genotype 1a full length construct, in Huh7 cells; assay: Secondary HCV replicon cell assay genotype 1a, antiviral activity; assay type: cell-based; conditions: Hepatitis C virus; for EC50: Huh-7, 2-fold depression of intracellular HCV RNA; for EC90: Huh-7, 10-fold depression of intracellular HCV RNA
Experimental: as §2, §3

[6] = test system: HCV replicon cell line, AVA5 (sub-genomic CONI, genotype 1b); assay: Primary HCV replicon cell assay, antiviral activity (intracellular HCV RNA, blot hybridization); assay type: cell-based; conditions: Hepatitis C virus, Ava5, 72 h, 3-day assay; for EC50: 2-fold depression of intracellular HCV RNA; for EC90: 10-fold depression of intracellular HCV RNA
Experimental: as §2, §3

[7] = Primary HCV replicon cell assay, cytotoxicity (neutral red dye uptake); assay type: cell-based; conditions: human, 3 days of treatment
Experimental: as §4

[8] = Secondary HCV replicon cell assay genotype 1a, cytotoxicity (neutral red dye uptake); assay type: cell-based; conditions: human
Experimental: as §4

[9] = Cytotoxicity in 2.2.15 cells (neutral red dye uptake); assay type: cell-based; conditions: human, nine daily doses
Experimental: Briefly, confluent cultures of 2.2.15 cells were maintained on 96-well flat-bottomed tissue culture plates (confluence in this culture system is required for active, high levels of HBV replication equivalent to that observed in chronically-infected individuals. Cultures were treated with nine consecutive daily doses of the test compounds. HBV DNA levels were assessed by quantitative blot hybridization 24 hr. after the last treatment. Cytotoxicity was assessed by uptake of neutral red dye 24 hr. following the last treatment.

[10] = test system: HBV virion in 2.2.15 cells; assay: HBV antiviral assay in 2.2.15 cells, virion (VIR) HBV DNA; assay type: cell-based; conditions: Hepatitis B virus; for EC50: read-out: EC50 (VIR); for EC90: read-out: EC90 (VIR)
Experimental: (§5) HBV antiviral assays were conducted as previously described [Korba, B. E. et al. Antiviral Res. 77, 56-63 (2008);].

[11] = test system: AVA5 HCV replicon cell line; assay: Secondary HCV replicon cell assay genotype 1b, cytotoxicity (neutral red dye uptake); assay type: cell-based
Experimental: as §4

[12] = cited from earlier work
[13] = test system: HBV replication intermediates in 2.2.15 cells; assay: HBV antiviral assay in 2.2.15 cells, replication intermediates (RI) HBV DNA; assay type: cell-based; conditions: Hepatitis B virus; for EC50: read-out: EC50 (RI)
Experimental: as §5

[14] = test system: Huh7 cells containing H/FL-Neo replicon; assay: Secondary HCV replicon cell assay genotype 1a, cytotoxicity (neutral red dye uptake); assay type: cell-based
Experimental: as §4

[15] = test system: cytochrome P450 enzymes; conditions: cited from earlier work
[16] = test system: AVA5 HCV replicon cell line; assay: Primary HCV replicon cell assay, cytotoxicity (neutral red dye uptake); assay type: cell-based; conditions: 3 days of treatment
Experimental: as §4

[17] = AVA5 HCV replicon cells (sub-genomic CON1)
[18] = AVA5 HCV replicon cells (sub-genomic CON1, genotype 1b)
[19] = HBV virion DNA, 2.2.15 cells, nine daily doses

SMILES	cytotoxic effect in Huh 7.5 cells [1]	CC50 at 3 days [2, 17]	EC50 [3]	EC90 [3]	inhibition of J6/JFH-1 HCV replication [4]	relative activity / potency versus NTZ [4]	EC50 [5]	EC90 [5]	EC50 [6]	EC90 [6]	CC50 at 3 days [7, 18]	CC50 at 3 days [8]	CC50 at 9 days [9]	EC50 [10, 19]	further results
O=C(Nc1cccc(F)c1)c1ccccc1O [Compound 3, N-(3-fluorophenyl)-2-hydroxybenzamide]	None of these compounds showed a cytotoxic effect	11 µM	0.6 µM	2.6 µM	shown to inhibit J6/JFH-1HCV replication	65%	0.42 µM	3.3 µM	0.82 µM	2.7 µM	> 100 µM	9.9 µM			
O=C(Nc1cc(C(F)(F)F)ccc1Cl)c1ccccc1O [Compound 41, N-(2-chloro-5-(trifluoromethyl)phenyl)-2-hydroxybenzamide]		0.79 µM	0.045 µM	0.177 µM			0.055 µM	0.244 µM	0.005 µM	0.032 µM	0.33 µM	0.68 µM	> 100 µM	3.7 µM	EC90 [10, 19]: 13 µM
COC(=O)c1ccc(NC(=O)c2ccccc2OC(C)=O)cc1 [Compound 44, methyl 4-(2-acetoxybenzamido)benzoate]	None of these compounds showed a cytotoxic effect	6.8 µM	0.35 µM	4.5 µM	shown to inhibit J6/JFH-1HCV replication	53%	0.3 µM	5.1 µM	0.058 µM	0.461 µM	4.4 µM	7.5 µM			
CC(=O)Oc1ccccc1C(=O)Nc1ncc([N+](=O)[O-])s1 [NTZ, nitazoxanide, reference compound]	without being cytotoxic; also recorded: None of these compounds showed a cytotoxic effect		0.25 µM	0.95 µM	demonstrated efficacy with regards to HCV replication; also recorded: shown to inhibit J6/JFH-1HCV replication		0.33 µM	1.1 µM	0.21 µM	0.977 µM			> 100 µM	0.12 µM	CC50 [11]: 35 µM; detection in plasma ([12]; after oral 500 mg NTZ tablet): not detected in plasma; EC50 ([13]; HBV replication intermediates, 2.2.15 cells, nine daily doses): 0.59 µM; CC50 at 3 days [7]: 31 µM; CC50 [14]: 49 µM
O=C(Nc1ncc([N+](=O)[O-])s1)c1ccccc1O [TIZ, tizoxanide, reference compound]			0.19 µM	0.92 µM			0.23 µM	1 µM	0.151 µM	0.813 µM		27 µM	> 100 µM		CC50 at 3 days [2]: 28 µM; inhibition of cytochrome P450 enzymes [15]: does not inhibit; fraction of oral dose excreted in feces as TIZ ([12]; oral dose of NTZ): Approximately two-thirds; maximum serum concentration of TIZ ([12]; oral, one 500 mg NTZ tablet (Alinia) with food): approximately 10 μg/mL and ~37 μM; elimination half-life from plasma ([12]; plasma): approximately 1.5 hours; EC50 [13]: 0.46 µM; EC90 ([13]; read-out: EC90 (RI)): 1.2 µM; CC50 [16]: 15 µM; EC50 [10]: 0.15 µM; EC90 [10]: 0.58 µM
